Reference: patent US20060051835A1, “Pael receptor, cells and animal expressing pael receptor and method of screning remedy for parkinson's disease” (priority 2001, published 2006)

What was measured:
[1] = tested on: Pael receptor; test: Immunocytochemistry, intracellular distribution of over-expressed Pael receptors in SH-SY5Y cells; type: cell-based, human; conditions: SH-SY5Y cells transfected with Pael receptor plasmids, treated for 6 hours
Experimental: For immunocytochemistry, a human Pael receptor expression vector (1 μg per sample) was gene-transferred, or was gene-transferred in combination with 0.3 μg of red fluorescent protein expression vector (pDsRed1-N1, Clontech) having endoplasmic reticulum localization sequence of calreticulin or Golgi body localization sequence of human β1, 4-galactosyltransferase into SH-SY5Y cells inoculated on a 8-well chamber slide. After 20 hours of culturing, the cells were exposed to 20 μM lactacystin for 16 hours. After washed in phosphate buffered saline, the cells were fixed with 0.2% glutaraldehyde and 2% formaldehyde. Subsequently, the cells were stained with anti-human Pael receptor antibodies or anti-BiP antibodies. For immunohistochemistry, the carboxyl terminal site (541 to 600 amino residues) of mouse Pael receptor was expressed as a GST fusion protein in Escherichia coli. The anti-Pael receptor polyclonal antibody was prepared against a recombinant protein from which the GST portion had been removed. 14 μm-thick frozen sections of the mouse C57BL/6 brain tissue were allowed to react with anti-Pael receptor antibodies (1:200 dilution), anti-TH antibodies (Chemicon, 1:100), anti-NeuN antibodies (Chemicon, 1:200) or anti-CNPase antibodies (Sigma, 1:100). The primary antibody was stained with Alexa 488 or Alexa 546 (Molecular Probes)-labeled secondary antibody. The stained cells or sections were mounted using SlowFade (Molecular probes), and then observed under a confocal laser fluorescence microscope (Fluoview, Olympus).
Furthermore, to confirm the involvement of cell death induced by misfolded proteins in cell death resulting from overexpression of Pael receptors, intracellular distribution of Pael receptors in the presence or the absence of lactacystin was examined. […] Expression plasmids for Pael receptors were gene-transferred to SH-SY5Y cells, and then the cells were cultured in the presence (middle and lower panels) or the absence (upper panel) of lactacystin for 6 hours. […]

[2] = tested on: SH-SY5Y cells; test: Cell death assay in SH-SY5Y cells with or without Pael receptor overexpression; type: cell-based
Description: Descriptions concerning expression plasmids for Parkin, Parkin variants, UBCH6, UBCH7 and Ubiquitin are as described in Imai, Y. et al. (2000) J Biol Chem 275, 35661-35664. The full-length complementary strand DNAs (cDNAs) of human and mouse Pael receptors, human ETBR-LP-2, human UBC6, UBC7 and E2-25K were obtained by reverse transcription (RT)-PCR. The full-length cDNA of ETA-R and that of ETB-R were obtained from the RIKEN Gene Bank. Recombinant GST-Parkin, GST-A Ex 4, 6×His tagged UBC6 and UBC7 were produced in the Escherichia coli BL21 strain (DE3) pLysS (Novagen). Site-directed mutagenesis to the active center cysteine of UBC6 and UBC7 was performed by the PCR method. UBC6 of a putative membrane insertion site-deficient type (UBC6ΔC; 1 to 288 amino residues) is expressed better than wild type UBC6 in Escherichia coli and has high enzyme activity, so that UBC6ΔC was subjected to in vitro ubiquitination assay. Anti-Myc (9E10), anti-HA (Y-11), anti-Ubiquitin (FL-76), anti-BiP (N-20) and anti-actin (C-2) antibodies were purchased from Santa Cruz Biotech. Anti-FLAG (M2), anti-HA (3F10), anti-Ubiquitin (1B3), anti-GluR4 (AB1508) and anti-NSE (BBS/NC/VI-H14) were purchased from Sigma, Roche Diagnostics, MBL (Nagoya, Japan), Chemicon and Dako, respectively. Anti-UCH-L1 antibodies were provided by Dr. Keiji WADA (National Center of Neurology and Psychiatry, Japan). 293T cells derived from a human fetal kidney and SH-SY5Y cells derived from neuroblastoma were subjected to gene transfer, immunoprecipitation, Western blot, immunocytochemistry and cell death assay according to the method as described in Imai et al., 2000.
To confirm this prediction, the effect of a proteasome inhibitor and that of a UPR inducer on cell death resulting from the overexpression of Pael receptors were examined (FIG. 11). Vectors (−) having no gene inserted therein or expression plasmids for Pael receptors (+) were gene-transferred with expression plasmids for enhanced green fluorescent proteins (EGFP) to SH-SY5Y cells. The cells were then cultured in the presence (Lc, 20 μM) or the absence (non) of lactacysin, and the presence of tunicamycin (Tm, 5 μg/ml) or 2-ME (2 mM) for 16 hours. Cell death was counted by the method described in Imai, Y. et al. (2000) J Biol Chem 275, 35661-35664. In FIG. 11, the line of error indicates the standard deviation (S.D.) calculated from three experiments.

[3] = tested on: Pael receptor; test: Western blotting of 1% Triton X-100-soluble and -insoluble fractions of Pael receptor-transfected SH-SY5Y cells; type: cell-based, human; conditions: 16 hours, lactacystin 10 μM, tunicamycin 1 μg/ml, 2-ME 1 mM; for Pael receptors in the insoluble fraction: 1% Triton X-100-insoluble fraction; for expression of BiP (GRP78) and of endogenous Parkin in the soluble fraction: cells over-expressing Pael receptors
Experimental: Cells were suspended in a cytolysis buffer (consisting of 20 mM HEPES, pH 7.4, 120 mM NaCl, 5 mM EDTA, 10% glycerol, 1% Triton X-100 and Complete Protease Inhibitors [Roche Diagnostics]) and then lysed at 4° C. for 30 minutes. The forebrain cortex of the human cerebrum was suspended in a cytolysis buffer, and then crushed using a downs homogenizer. The sample was fractionated into surfactant-soluble and insoluble fractions, and then immuno-precipitated according to a modified method of Ward et al. (1995) Cell 83, 121-127. Specifically, the suspension was fractionated by centrifugation at 15,000×g for 30 minutes. The supernatant derived from 1% Triton X-100 soluble fraction was directly subjected to immunoprecipitation. The insoluble pellet fraction was washed 4 times in an ice-cooled cytolysis buffer. Subsequently, the fraction was subjected to lysis at 60° C. for 1 hour in a cytolysis buffer supplemented with sodium lauryl sulfate (SDS) with a final concentration of 1%. A cytolysis buffer containing 10 mM MgCl2 and 25 μg/ml DNase I and having a volume 10 times greater than that of the solution was added. The solution was allowed to react at 37° C. for 10 minutes. After centrifugation at 15,000×g for 30 minutes, the supernatant derived from 1% Triton X-100 insoluble fraction was subjected to immunoprecipitation using various antibodies and protein G-coupled or protein A/G (50/50%)-coupled Sepharose beads (Amersham-Pharmacia). The immunoprecipitate was washed 4 times in a cytolysis buffer containing no complete protease inhibitors. 1% Triton X-100-soluble and -insoluble fractions of total cell extract, or immunoprecipitates derived from the 1% Triton X-100-soluble fraction and -insoluble fraction were subjected to Western blot analysis using ECL detection reagent (Amersham-Pharmacia). Proteins were quantified using Coomassie protein assay reagent (Pierce).
Vectors (−) having no gene inserted therein or expression plasmids (+) for Pael receptors were gene-transferred to SH-SY5Y cells, and then the cells were cultured for 20 hours. Next, in the presence or the absence of lactacystin (10 μM) and in the presence of tunicamycin (1 μg/ml) or 2-mercaptoethanol (2-ME; 1 mM), the cells were cultured for 16 hours. The cells were lysed in a buffer containing 1% Triton X-100, and then fractionated by the method described in Ward et al., 1995 Cell 83, 121-127. Insoluble Pael receptors were immunoprecipitated as described above from the insoluble fraction of the same sample, and then analyzed using anti-Ub polyclonal antibodies (FIG. 10). 1% Triton-X100-insoluble or -soluble fraction was obtained under various conditions, including cases wherein Pael receptor cDNA had not been transfected (−) or transfected (+) to SH-SY5Y cells, and then subjected to Western blotting. Even in an untreated state, Pael receptors were already present in the insoluble fraction at a level equivalent to that of the soluble fraction.

[4] = tested on: Pael receptor; test: Pulse-chase experiment, turnover of 35S-labeled Pael receptor; type: cell-based, human; conditions: 10 μM lactacystin, relative to level at time 0
Experimental: Pael receptors having FLAG-tagged carboxyl termini (Pael receptor-FLAG) and expression plasmids for Parkin or control plasmids were gene-transferred to SH-SY5Y cells. 36 hours later, the cells were cultured for 1 hour in Dulbecco's modified eagle's medium (M/C-free DMEM) containing 5% fetal calf serum (FCS) but containing no methionine/cysteine under conditions involving the presence or the absence of 10 μM lactacystin. The cells were then labeled at 37° C. for 30 minutes by adding 200 μCi/ml ^35S-methionine/cysteine to the 5% FCS-containing M/C-free DMEM in the presence or the absence of 10 μM lactacystin. […] The metabolically labeled Pael receptor was quantified using Image Gauge software (Fujifilm). Next, to examine whether Parkin degrades the Pael receptor in the ubiquitin-proteasome system, the turnover rate of the Pael receptor was measured under conditions involving the presence or the absence of Parkin by the pulse-chase experiment (FIG. 9). […] Subsequently, ^35S-methionine/cysteine were added for labeling, and then the cells were chased for the time indicated in FIG. 9 in the presence (Lc +) or the absence (Lc −) of 10 μM lactacystin. ^35S-labeld Pael receptors were immunoprecipitated, detected by radioautography (FIG. 9 left), and then quantified by phosphor imaging (FIG. 9 right). […]

[5] = Pael receptor-over-expressing SH-SY5Y cells, 16 hours, lactacystin 20 μM, tunicamycin 5 μg/ml, 2-ME 2 mM
[6] = control SH-SY5Y cells, 16 hours, tunicamycin 5 μg/ml, 2-ME 2 mM

Row | Compound | intracellular distribution of Pael receptors [1] | cells died ([2]; human, 16 h, 20 μM) | Pael receptors in the insoluble fraction [3] | expression of BiP (GRP78) and of endogenous Parkin in the soluble fraction [3] | Pael receptors remained after 180 minutes of chasing ([4]; SH-SY5Y cells over-expressing Parkin) [%] | Pael receptors remained after 180 minutes of chasing ([4]; control SH-SY5Y cells) [%] | cells died [2, 5] | cells died [2, 6] [%]
1 | CC(=O)N[C@@H](CSC(=O)[C@]1([C@@H](O)C(C)C)NC(=O)[C@H](C)[C@@H]1O)C(=O)O [lactacystin] | accumulated in the endoplasmic reticulum | approximately 50% | increased with a high-molecular-weight shift | caused increases | 58 | 54 |  | 
2 | tunicamycin | the same |  | increased with a high-molecular-weight shift | caused increases |  |  | approximately 60% | 40
3 | OCCS [2-ME, 2-mercaptoethanol] | the same |  | increased with a high-molecular-weight shift | caused increases |  |  | approximately 60% | 40
